Test results from patent publication US11911386B2, “Methods of treating B-cell proliferative disorder” (BeiGene Switzerland GmbH, priority 2022, dated 2024).

Assays:
[1] = cited from earlier work
panel of 370 kinases = assay: Kinome profiling at 100xIC50 (BTK) concentrations; type: biochemical; settings: 100×IC50 (BTK) concentration
[2] = RESONATE / RESONATE2 trials: ibrutinib effect (non-inferiority margin derivation); type: in vivo, human
CYP3A = settings: coadministration of rifabutin with midazolam; cited from earlier work
[3] = cited from earlier work; remark: listed apart in the source
[4] = Phase 1 DDI study: treatment-emergent adverse events; type: in vivo, human; settings: N = 13
Protocol: Safety was assessed by monitoring and recording of adverse events (AEs), serious adverse events (SAEs), clinical laboratory tests, physical examinations, and vital signs. […] A TEAE was defined as an AE that started during or after the first dose or started before the first dose and increased in severity after the first dose. AEs were classified based on MedDRA Version 24.0.
Safety and tolerability were assessed, when applicable, by incidence, severity, change from baseline values, and abnormal values for all relevant parameters such as AEs, laboratory parameters, vital signs, and physical examination.

[5] = phase 3, relapsed/refractory CLL

Row | Structure (SMILES) | Arthralgia, any grade [1, 5] [%] | Atrial fibrillation, any grade [1, 5] [%] | Cough [1, 5] [%] | Fatigue grade ≥3 [1, 5] [%] | Headaches [1, 5] [%] | Hypertension, any grade [1, 5] [%] | Infections grade ≥3 [1, 5] [%] | Off-target kinases inhibited (panel of 370 kinases) [kinases] | AEs leading to treatment discontinuation ([1]; long-term follow-up, 132 patients) [%] | Pooled PFS HR, fixed-effect meta-analysis [2] | Reduction in midazolam exposure (CYP3A) | Decrease of systemic levels after multiple doses (auto-induction) ([3]; in vivo) [%] | Mean t1/2 (standard deviation) ([3]; single oral dose of 300 mg) | Tmax ([3]; single oral dose of 300 mg) [h] | Chromaturia TEAE [4] | Overall TEAEs [4] | Renal and urinary disorders TEAE [4]
1 | CC#CC(=O)N1CCC[C@H]1c1nc(-c2ccc(C(=O)Nc3ccccn3)cc2)c2c(N)nccn12 [acalabrutinib] | 15.8 | 9.0 | 28.9 | 3.4 | 34.6 | 8.6 | 30.8 | 15 |  |  |  |  |  |  |  |  | 
2 | C=CC(=O)N1CCC[C@@H](n2nc(-c3ccc(Oc4ccccc4)cc3)c3c(N)ncnc32)C1 [ibrutinib, 1-[(3R)-3-[4-amino-3-(4-phenoxyphenyl)-1H-pyrazolo[3,4-d]pyrimidin-1-yl]-1-piperidinyl]-2-propen-1-one] |  |  |  |  |  |  |  | 17 | 13 | 0.120 |  |  |  |  |  |  | 
3 | CO[C@H]1/C=C/O[C@@]2(C)Oc3c(C)c(O)c4c(c3C2=O)C2=NC3(CCN(CC(C)C)CC3)NC2=C(NC(=O)/C(C)=C\C=C\[C@H](C)[C@H](O)[C@@H](C)[C@@H](O)[C@@H](C)[C@H](OC(C)=O)[C@@H]1C)C4=O [rifabutin] |  |  |  |  |  |  |  |  |  |  | ≈ 3.2 fold | 38 | 45 (standard deviation, 17) hours | 2 to 4 | 6 (46.2) n (%) | 6 (46.2) n (%) | 6 (46.2) n (%)
